Assay results published in PubChem BioAssay (NCI).
Where “and” joins values, the source holds several entries; their conditions need not be identical. Identical values can stand only once.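 Cells were grown in 96-well plates and exposed to each compound for 48 hours at five concentrations; endpoints were interpolated linearly between bracketing concentrations, or set to the highest concentration if not reached. At the GI50, growth is halved. TGI is the concentration that stops growth completely.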

Key:
Assay in all cases: growth of human tumour cells (NCI), 48 h
[1] = test system: RPMI-8226 leukemia
[2] = test system: HCC-2998 colon
[3] = test system: SW-620 colon
[4] = test system: OVCAR-8 ovarian
[5] = test system: SK-MEL-2 melanoma
[6] = test system: COLO 205 colon
[7] = test system: MALME-3M melanoma
[8] = test system: HCT-15 colon
[9] = test system: U251 CNS
[10] = test system: NCI/ADR-RES ovarian

SMILES	TGI [1] [µM]	TGI [2]	TGI [3] [µM]	TGI [4] [µM]	TGI [5] [µM]	TGI [6]	TGI [7] [µM]	TGI [8]	TGI [9] [µM]	GI50 [1] [µM]	GI50 [3] [µM]	GI50 [4] [µM]	GI50 [5] [µM]	GI50 [6] [µM]	GI50 [7] [µM]	GI50 [8] [µM]	GI50 [9] [µM]	GI50 [10] [µM]	TGI [10] [µM]	GI50 [2] [µM]
O=C1[C@@H]2C3SC(c4ccccc43)[C@@H]2C(=O)N1c1ccccc1	> 100	> 100 µM	> 100	> 100	> 100	> 100 µM	> 100	> 100 µM	> 100											
O=C(CC(=O)Nc1ccccc1O)Nc1ccccc1O	44.2	> 100 µM	17.1	> 100		33.2 µM	37.7	21.8 µM	> 100											
Nc1ccc2c(c1)CC1c3ccccc3C(C2)c2ccccc21	> 100	> 100 µM	> 100	> 100	> 100	> 100 µM	> 100	> 100 µM	> 100											
Cc1ccccc1NC(=O)C1C(=O)N(c2ccccc2C)C(=O)/C1=N\N (stereo unspecified)	> 100	> 100 µM	> 100	> 100	> 100	> 100 µM	> 100	> 100 µM	> 100											
Nc1nc(N)c(N=O)c(Nc2ccc(I)cc2)n1	> 100	88.2 µM	> 100	> 100	34.1	33.2 µM	78.3	96.7 µM	> 100											
COc1cc(C(=O)C/C(CCC(=O)Nc2ccc(Cl)cc2Cl)=N/NC(=O)C(N)=O)ccc1O	> 100	> 100 µM	> 100	> 100	> 100	> 100 µM	> 100	> 100 µM	> 100											
COc1cc2c(c(OC)c1OC)-c1ccc(SC)c(=O)cc1[C@@H](NCc1cccc(C#N)c1)CC2	40.7	0.0515 µM	> 75		< 0.0075	0.0593 µM and < 0.0075 µM	> 75		0.0434	< 0.0075	< 0.0075	< 0.0075	< 0.0075	< 0.0075	< 0.0075	< 0.0075				
CC(=O)Nc1ccccc1-c1cnc2ccccc2n1	> 100	> 100 µM	> 100	> 100		> 100 µM	> 100	> 100 µM	> 100											
Cc1ccc(NC(=O)CC/C(CC(=O)c2ccc(F)cc2)=N\NC(=O)C(=O)NN)cc1C		> 100 µM	> 100	> 100	> 100	> 100 µM	> 100	> 100 µM	> 100											
O=C(/C=C/c1ccccc1O)c1cccnc1		> 100 µM	> 100	> 100	> 100		> 100		> 100											
O=C(O)C[O][Sb][O]CC(=O)O			> 100	> 100	> 100		> 100	> 100 µM	> 100		> 100	> 100	> 100		> 100	> 100	> 100	> 100	> 100	
CCOC(=O)C(Cc1ccccc1)NC(=O)OC(C)(C)C (stereo unspecified)		> 100 µM	> 100	> 100	> 100	> 100 µM	> 100	> 100 µM	> 100											
O=C(O)CCCCCO	> 100	> 100 µM	> 100	> 100	> 100	> 100 µM	> 100	> 100 µM	> 100											
NCCCC1NC(=O)/C(=C(O)/C=C/C2CCC[C@@H]2CC2SCCS2)C1=O (stereo partly specified)	> 100	> 100 µM	> 100	> 100	> 100	> 100 µM	> 100		> 100											
CC1=C(C(=O)CC(=O)C(=O)Nc2ccccc2)Sc2ccccc2N1	> 100		> 100	> 100	> 100	> 100 µM	> 100	> 100 µM	> 100											
CCc1ccc(Nc2cc(=O)[nH]c(=S)n2C)cc1	> 100		> 100	> 100	> 100	> 100 µM	> 100	> 100 µM	> 100											

SMILES	TGI [1] [µM]	TGI [2]	TGI [3] [µM]	TGI [4] [µM]	TGI [5] [µM]	TGI [6]	TGI [7] [µM]	TGI [8]	TGI [9] [µM]	GI50 [1] [µM]	GI50 [3] [µM]	GI50 [4] [µM]	GI50 [5] [µM]	GI50 [6] [µM]	GI50 [7] [µM]	GI50 [8] [µM]	GI50 [9] [µM]	GI50 [10] [µM]	TGI [10] [µM]	GI50 [2] [µM]
NC(=S)NNC(=O)CCC(=O)Nc1ccc(Cl)cc1Cl	> 100	> 100 µM	> 100	> 100	> 100	> 100 µM	> 100	> 100 µM	> 100											
CCC[CH2][Ge]([CH2]CCC)([CH2]CCC)[O]C(=O)C(OC)c1ccccc1 (stereo unspecified)	14.6	59 µM	> 100	> 100	> 100	> 100 µM	> 100	32.4 µM	> 100	0.255	47.3	70.2	42.4	45.8	26.7	9.52	31.4			23.2
Cc1ncc(C(=O)Nc2ccc(CN3CCN(C)CC3)c(C(F)(F)F)c2)cc1C#Cc1cnc(N)c2ncccc12	3.98		2.9	4.86	0.747	1.61 µM	0.135	1.79 µM	2.65	0.538	0.208	1.1	0.0783	0.0424	< 0.0177	0.0752	1.07	1.34	3.76	
CNNC(=N\S(=O)(=O)c1cc(C(=O)Nc2ccc(Cl)cc2)c(Cl)cc1SCc1ccccc1)/N=C/c1ccc([N+](=O)[O-])s1		> 100 µM	> 100	> 100	> 100	> 100 µM	> 100	> 100 µM	> 100		> 20.9	> 100	> 100	8.97	> 100	22.5	> 100	> 100	> 100	2.83
CCC[CH2][Sn]([CH2]CCC)([O]C(=O)c1cc(OC)c(OC)cc1OC)[O]C(=O)c1cc(OC)c(OC)cc1OC	2.96		2.83	3.03	2.54	2.6 µM	2.08	2.92 µM	2.66	0.499	1.13	1.48	1.26	1.25	0.793	1.26	1.35			
CCOC(=O)N1N=NC2C3OC(C[C@@]3(C#N)OC(C)=O)[C@H]21 (stereo partly specified)	> 100	> 100 µM	> 100	> 100	> 100	> 100 µM	> 100	> 100 µM	> 100											
CCCCCCCCCC1C(C)c2c([nH]c3ccccc23)C2C(=O)N(c3ccccc3)C(=O)C21 (stereo unspecified)		25.7 µM	> 100	> 100	32.2		> 100	23 µM	26.7											
COc1cc2ccnc(-c3c4ccccc4c(N)c4c(OC)c(OC)ccc34)c2cc1OC		8.86 µM	13.1		16.6	3.09 µM	11.5		14											
Nc1ncnc2c(C3OC(CO)C(O)C3O)scc12 (stereo unspecified)		0.121 µM and 0.277 µM	> 100		2.14	1.15 µM and 1.23 µM	24.4	0.584 µM and 0.14 µM	> 100				0.228		4.35		2.45			
CC1=CC2=C(C(N)=O)C(=O)OC2(C)C(c2ccccc2)C1 (stereo unspecified)	> 100		> 100	> 100	> 100		> 100	> 100 µM	> 100										> 100	
CC(=O)OC1C/C(C)=C/CCC(C)/C=C/C2(C)CCC(C(C)(C)O)C12 (stereo unspecified)	71.7	> 100 µM	> 100	> 100	> 100	> 100 µM	> 100	> 100 µM	> 100											
COc1cc(/C=C/c2ccc(OC(C)=O)cc2)cc(OC)c1OC	68.6		> 100	> 100		67.2 µM	97.1	> 100 µM	> 100											
CCC[CH2][Ge]([CH2]CCC)([CH2]CCC)[O]C(=O)C(O)c1ccccc1 (stereo unspecified)	42.2	14.4 µM	20.4	22.4		12 µM	18	14.2 µM	20.3	0.641	4.09	10.6		2.33	1.45	1.78	2.32			2.69
Cc1ccccc1-c1c(N)nc(N)nc1C(=O)Nc1nccs1	> 100	> 100 µM	> 100	> 100	> 100	> 100 µM	> 100	> 100 µM	> 100											
O=Cc1ccc(Oc2c3ccccc3nc3occc23)cc1	48.3			66.2		63 µM				12.2		18.3		21.8				15.2	45	
CCC1(C(=O)OC)CCc2c(OC)ccc(OC)c2C1=O (stereo unspecified)	> 100	> 100 µM	> 100	> 100	> 100	> 100 µM	> 100	> 100 µM	> 100											
